Test results reported in US20240247257A1, “SYSTEM AND METHODS FOR INSERTION AND EDITING OF LARGE NUCLEIC ACID FRAGMENTS” (WUHAN UNIVERSITY, priority 2021, published 2024).

Tests used:
Format in all cases: cell-based, human
RPE cells [1] = assay: Cell cycle of RPE cells, propidium iodide staining, flow cytometry
Description: (§1) FIG. 11. GRAND editing mediates precise large insertion in non-dividing cells. a, The proliferation of RPE cells at 6 h, 12 h, 24 h, 48 h after treated with 1 or 2.5 μM Palbociclib, or 100, 200, 400 ng/mL Nocodazole was determined by cell counting. b, The cell cycles of RPE cells were determined by propidium iodide staining. c, Detection of the nascent DNA synthesis in RPE cells by 5-ethynyl-2′-deoxyuridine (EdU) incorporation assay. The proportions of EdU-labeled positive cells were determined by flow cytometry. d, A 100 bp DNA fragment was inserted at EGFP (595-647) site in non-dividing RPE cells using GRAND editing. The accurate editing and imperfect events were quantified by deep sequencing. Mean±s.d. of n=3 independent biological replicates for a, b, d, and n=3-5 independent biological replicates for c.
(§2) To determine whether GRAND editing-mediated targeted insertion is cell cycle independent, we used small molecule drugs to arrest the cell cycle of human retinal pigment epithelium (RPE) cell line. Palbociclib, a Cdk4 and Cdk6 inhibitor, effectively arrests cells in G1 phase. […] Next, we conducted the GRAND editing on RPE cells with Palbociclib or Nocodazole treatment.

RPE cells [2] = assay: EdU incorporation assay of nascent DNA synthesis in RPE cells
Description: as §1, §2

RPE cells [3] = assay: Proliferation of RPE cells by cell counting; settings: 100-400 ng/ml
Description: as §1, §2

COC(=O)Nc1nc2ccc(C(=O)c3cccs3)cc2[nH]1 [Nocodazole]
cell cycle arrest (RPE cells [1]): arrest at G2 phase
global DNA replication (EdU incorporation) (RPE cells [2]; at 24-48 hours): near fully inhibited replication
global DNA replication (EdU incorporation) (RPE cells [2]; at 12 hours): significantly suppressed global DNA replication
growth of RPE cells (RPE cells [3]): fully inhibited
